The text below walks through data of patent US9889183B2, “PKC activators and anticoagulant in regimen for treating stroke” (BLANCHETTE ROCKEFELLER NEUROSCIENCES INSTITUTE, priority 2010, dated 2018).

The target of one assay is T1, PKCδ (Homo sapiens, UniProt Q05655).
T1 construct: purchased Calbiochem
As to the kind of experiment: PKC isozyme specificity, PKCδ. The following applies: about 1-100 μM; data not shown. It is filed as biochemical. The protocol:
Protein kinase C assay. Rat hippocampal cells were cultured and scraped in 0.2 ml homogenization buffer (20 mM Tris-HCl, pH 7.4, 50 mM NaF, 1 μg/ml leupeptin, and 0.1 mM PMSF) and homogenized by sonication a Marsonix microprobe sonicator (5 sec, 10 W). To measure PKC, 10 μl of cell homogenate or purified PKC isozyme (purchased from Calbiochem) was incubated for 15 min at 37° C. in the presence of 10 μM histones, 4.89 mM CaCl2, 1.2 μg/μl phosphatidyl-L-serine, 0.18 μg/μl 1,2-dioctanoyl-sn-glycerol, 10 mM MgCl2, 20 mM HEPES (pH 7.4), 0.8 mM EDTA, 4 mM EGTA, 4% glycerol, 8 μg/ml aprotinin, 8 μg/ml leupeptin, and 2 mM benzamidine. […][^γ32P]ATP was added and ^32P-phosphoprotein formation was measured by adsorption onto phosphocellulose as described previously. Nelson and Alkon, J. Neurochemistry (1995), vol. 65, pp. 2350-2357. For measurements of activation by BR-101 (DCP-LA) and similar compounds. PKC activity was measured in the absence of diacylglycerol and phosphatidylserine and PKC δ, ε, η, and μ were measured in the absence of added EGTA and CaCl2, as described by Kanno et al. (J. Lipid Res. 2006, vol. 47, pp. 1146-1150). […]
(§1) To determine their PKC isozyme specificity, fatty acid derivatives were preincubated with purified PKC for five minutes and the PKC activity was measured radiometrically.

In another assay the target is T2, PKCε (Homo sapiens, UniProt Q02156).
T2 construct: purchased Calbiochem
T2 sequence (Q02156 1-737): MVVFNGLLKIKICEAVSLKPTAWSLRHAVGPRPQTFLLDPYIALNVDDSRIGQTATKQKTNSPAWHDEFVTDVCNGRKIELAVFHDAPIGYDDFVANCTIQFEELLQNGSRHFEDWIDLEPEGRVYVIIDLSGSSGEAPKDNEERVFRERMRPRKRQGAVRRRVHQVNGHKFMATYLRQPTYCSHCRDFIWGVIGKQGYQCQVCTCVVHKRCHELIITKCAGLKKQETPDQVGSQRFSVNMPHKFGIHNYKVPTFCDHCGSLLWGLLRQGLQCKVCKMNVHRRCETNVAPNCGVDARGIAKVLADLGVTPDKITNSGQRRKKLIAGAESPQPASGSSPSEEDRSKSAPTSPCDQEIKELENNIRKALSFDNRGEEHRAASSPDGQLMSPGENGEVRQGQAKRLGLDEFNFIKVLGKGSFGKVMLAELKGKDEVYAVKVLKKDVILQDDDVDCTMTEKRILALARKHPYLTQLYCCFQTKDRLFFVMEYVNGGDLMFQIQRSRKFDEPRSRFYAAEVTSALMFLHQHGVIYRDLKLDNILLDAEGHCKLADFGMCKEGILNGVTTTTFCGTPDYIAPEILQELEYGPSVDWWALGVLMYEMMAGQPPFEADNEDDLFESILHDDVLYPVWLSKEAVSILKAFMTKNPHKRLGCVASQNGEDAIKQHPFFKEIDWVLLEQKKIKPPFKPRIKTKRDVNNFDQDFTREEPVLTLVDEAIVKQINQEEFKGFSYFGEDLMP
Briefly: PKC assay with purified PKCε. It is filed as biochemical. As for the experimental part: PKC assay. Recombinant PKC (1 ng of PKCα or PKCε isoform) was mixed with BR-101 (DCP-LA) in the presence of 10 micromolar histones, 5 mM CaCl2, 1.2 μg/μl phosphatidyl-L-serine, 0.18 μg/μl 1,2-dioctanoyl-sn-glycerol (DAG), 10 mM MgCl2, 20 mM HEPES (pH 7.4), 0.8 mM EDTA, 4 mM EGTA, 4% glycerol, 8 μg/ml aprotinin, 8 μg/ml leupeptin, and 2 mM benzamidine. 0.5 micro Ci[^γ32P]ATP was added. The incubation mixture was incubated for 15 min at 37 degrees in a total volume of 10 microliters. The reaction was stopped by spotting the reaction mixtures on 1×2 cm strips of cellulose phosphate paper (Whatman P81) and immediately washing twice for 1 hr in 0.5% H3PO4. The cellulose phosphate strips were counted in a scintillation counter. In some experiments, phosphatidylserine, diacylglycerol, and/or calcium were removed.
DHA methyl ester was purchased from Cayman Chemical (Ann Arbor, Me.). PKC isozymes were from Calbiochem (San Diego, Calif.). Purified PKCε was purchased from Calbiochem.
Protein kinase C assay. Rat hippocampal cells were cultured and scraped in 0.2 ml homogenization buffer (20 mM Tris-HCl, pH 7.4, 50 mM NaF, 1 μg/ml leupeptin, and 0.1 mM PMSF) and homogenized by sonication a Marsonix microprobe sonicator (5 sec, 10 W). To measure PKC, 10 μl of cell homogenate or purified PKC isozyme (purchased from Calbiochem) was incubated for 15 min at 37° C. in the presence of 10 μM histones, 4.89 mM CaCl2, 1.2 μg/μl phosphatidyl-L-serine, 0.18 μg/μl 1,2-dioctanoyl-sn-glycerol, 10 mM MgCl2, 20 mM HEPES (pH 7.4), 0.8 mM EDTA, 4 mM EGTA, 4% glycerol, 8 μg/ml aprotinin, 8 μg/ml leupeptin, and 2 mM benzamidine. […][^γ32P]ATP was added and ^32P-phosphoprotein formation was measured by adsorption onto phosphocellulose as described previously. Nelson and Alkon, J. Neurochemistry (1995), vol. 65, pp. 2350-2357. For measurements of activation by BR-101 (DCP-LA) and similar compounds. PKC activity was measured in the absence of diacylglycerol and phosphatidylserine and PKC δ, ε, η, and μ were measured in the absence of added EGTA and CaCl2, as described by Kanno et al. (J. Lipid Res. 2006, vol. 47, pp. 1146-1150). Low concentrations of Ca^2+ are used because high Ca^2+ interacts with the PKC phosphatidylserine binding site and prevents activation. For measurements of bryostatin activation, 1,2-diacylglycerol was omitted unless otherwise stated.
as §1

The test system of a further assay is TACE in primary neurons. As to the kind of experiment: TACE assay, rat primary neurons. It is filed as cell-based. The settings on record: FIG. 13b and 13c. The protocol: FIGS. 13a, 13b and 13c show effects of (FIG. 13a) bryostatin, BR-101 (DCP-LA) and BR-111 (DHA-CP6) on TACE activity in N2a neuroblastoma cells transfected with human APPSwe/PS1D; (FIG. 13b) various concentrations of bryostatin on TACE activity in rat cortical primary neurons; and (FIG. 13c) BR-111 (DHA-CP6) on TACE activity in rat cortical primary neurons.
TACE Assay. TACE was measured by incubating 5 μl cell homogenate, 3 μl buffer (50 mM Tris-HCl 7.4 plus 25 mM NaCl plus 4% glycerol), and 1 μl of 100 μM TACE substrate (Aβz-[…]-DPa) (Calbiochem) for 20 min at 37° C. 1.5-ml polypropylene centrifuge tubes. Jin et al., Anal. Biochem. (2002), vol. 302, pp. 269-275. The reaction was stopped by cooling to 4° C. The samples were diluted to 1 ml and the fluorescence was rapidly measured (ex=320 nm, em=420 nm) in a Spex Fluorolog 2 spectrofluorometer.
Buxbaum et al., J Biol. Chem. (1998), vol. 273, pp. 27765-27767; Etcheberrigaray et al., Proc. Natl. Acad. Sci. USA (2006), vol. 103, pp. 8215-8220. However, many of these earlier studies were carried out in fibroblasts and other non-neuronal cell types, which appear to respond differently to PKC activators than neurons.

Assay [1] has as its system ischemic stroke (middle cerebral artery occlusion) in rats. Briefly: Focal ischemia (MCAO) model of stroke. It is filed as in vivo, rat. As for the experimental part:
A transient animal model of focal ischemia was used for these experiments. The middle cerebral artery (MCA) was surgically dissected and occluded in anesthetized rats by ligature, followed by reperfusion after a defined period (about 2 hours). Animal models transient ischemia via occlusion of the MCA (MCAO) are well-known and described in, e.g., Sicard and Fisher, Exp. & Transl. Stroke Med. (2009), vol. 1, pp. 1-7.

[2] abbreviates: rTPA at 2 hours followed 6 hours later with bryostatin-1, vs rTPA alone.

T1 sequence (Q05655 whole entry): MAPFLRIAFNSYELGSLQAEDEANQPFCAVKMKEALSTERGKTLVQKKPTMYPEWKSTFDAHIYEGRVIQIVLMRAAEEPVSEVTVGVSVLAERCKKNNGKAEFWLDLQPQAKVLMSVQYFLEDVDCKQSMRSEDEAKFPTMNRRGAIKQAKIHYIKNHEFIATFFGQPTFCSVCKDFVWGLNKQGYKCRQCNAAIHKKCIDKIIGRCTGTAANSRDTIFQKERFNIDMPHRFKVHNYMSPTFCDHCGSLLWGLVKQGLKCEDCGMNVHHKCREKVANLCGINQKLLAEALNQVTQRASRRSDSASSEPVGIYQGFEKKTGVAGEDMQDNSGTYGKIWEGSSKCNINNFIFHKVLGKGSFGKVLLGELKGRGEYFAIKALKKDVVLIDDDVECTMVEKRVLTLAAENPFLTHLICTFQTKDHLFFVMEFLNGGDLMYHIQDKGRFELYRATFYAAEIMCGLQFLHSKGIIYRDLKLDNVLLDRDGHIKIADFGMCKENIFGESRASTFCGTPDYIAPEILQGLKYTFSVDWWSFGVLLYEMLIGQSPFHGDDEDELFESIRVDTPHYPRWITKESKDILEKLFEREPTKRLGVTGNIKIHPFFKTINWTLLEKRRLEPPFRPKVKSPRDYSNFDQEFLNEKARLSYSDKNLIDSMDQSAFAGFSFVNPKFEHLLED

For `CCCCCC1CC1CC1CC1CCCCCCCC(=O)O` (centres unmarked) [BR-101, 2-[(2-pentylcyclopropyl)methyl]cyclopropaneoctanoic acid], the “effect on PKCδ” value at PKCδ was “partially inhibited”. Further, the “activation of PKCε (in words)” value at PKCε (at 10 μM) is given as “effective activator”.
Turning to `CCC1CC1CC1CC1CC1CC1CC1CC1CC1CC1CC1CC1CCC(=O)OC` (centres unmarked) [BR-111, methyl-3-(2-((2-((2-((2-((2-((2-ethylcyclopropyl)methyl)cyclopropyl)methyl)cyclopropyl)methyl)-cyclopropyl)methyl)cyclopropyl)methyl)cyclopropyl)propanoate], in the assay with TACE in primary neurons, the TACE activity entry is reported as “small increases”. For the same compound, the “concentration needed to activate PKC relative to BR-101 (DCP-LA)” value on PKCε is given as “approximately 100 times lower”. On PKCε (FIG. 7, methyl esters), the “activation of purified PKCε (in words)” value was “activated purified PKCε to a similar extent”.
`CCC/C=C/C=C/C(=O)O[C@H]1/C(=C/C(=O)OC)C[C@H]2C[C@H]([C@@H](C)O)OC(=O)C[C@H](O)C[C@@H]3C[C@H](OC(C)=O)C(C)(C)[C@](O)(C[C@@H]4C/C(=C/C(=O)OC)C[C@H](/C=C/C(C)(C)[C@]1(O)O2)O4)O3` [Bryostatin-1, bryostatin-1]: the TACE activity result in the assay on TACE in primary neurons was “small increases”. For the same compound, in assay [1] (bryostatin-1 2 hours after stroke, rTPA 6 hours later, vs rTPA alone), the brain edema entry is recorded as “significantly reduced”. For the same compound, the “reduction of assayed hemoglobin in the cortex and striatum” value in assay [1] (bryostatin-1 2 hours after stroke, rTPA 6 hours later, vs rTPA at 6 hours alone) was 50%. The “mortality 24 hours later” value in assay [1] (rTPA 6 hours after the stroke, followed 2 hours later with bryostatin-1, rats) was 0%. Besides, in assay [1] (setting [2]), the “uptake of Evans Blue dye in ipsilateral and contralateral cortices (BBB permeability)” value is “significantly reduced”; the “uptake of NaF in ipsilateral and contralateral cortices” value was “reduced”.
